Test results published in patent US6737383B1, “Herbicidal oxadiazolidines” (priority 1999, dated 2004).

What was measured:
bedstraw = assay: Test B pre/postemergence bedstraw; type: in vivo, Galium aparine
Summary of the method: (§1)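 Test chemicals in a non-phytotoxic solvent mixture with surfactant were sprayed preemergence onto planted seeds and postemergence onto plants 2 to 18 cm tall (1- to 4-leaf stage). After twelve to sixteen days in a greenhouse, injury was visually rated against untreated controls from 0 (no effect) to 10 (complete control).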

blackgrass = assay: Test B pre/postemergence blackgrass; type: in vivo, Alopecurus myosuroides
Summary of the method: as §1

giant foxtail = assay: Test B pre/postemergence giant foxtail; type: in vivo, Setaria faberii
Summary of the method: as §1

morningglory = assay: Test B pre/postemergence morningglory; type: in vivo, Ipomoea hederacea
Summary of the method: as §1

pigweed = assay: Test B pre/postemergence pigweed; type: in vivo, Amaranthus retroflexus
Summary of the method: as §1

rape = assay: Test B pre/postemergence rape; type: in vivo, Brassica napus
Summary of the method: as §1

soybean = assay: Test B pre/postemergence soybean; type: in vivo, Glycine max
Summary of the method: as §1

sugar beet = assay: Test B pre/postemergence sugar beet; type: in vivo, Beta vulgaris
Summary of the method: as §1

velvetleaf = assay: Test B pre/postemergence velvetleaf; type: in vivo, Abutilon theophrasti
Summary of the method: as §1

wheat = assay: Test B pre/postemergence wheat; type: in vivo, Triticum aestivum
Summary of the method: as §1

wild oat = assay: Test B pre/postemergence wild oat; type: in vivo, Avena fatua
Summary of the method: as §1

purple nutsedge = assay: Test B pre/postemergence purple nutsedge; type: in vivo, Cyperus rotundus
Summary of the method: as §1

rice = assay: Test B flood test rice; type: in vivo, Oryza sativa
Summary of the method: (§2)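 Read-out is a visual response score from 0 (no effect) to 10 (complete control), assigned by comparison with untreated controls. Treatment was applied at the 2-leaf stage, and plants stayed in the greenhouse for twelve to sixteen days before scoring.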

smallflower flatsedge = assay: Test B flood test smallflower flatsedge; type: in vivo, Cyperus difformis
Summary of the method: as §2

duck salad = assay: Test B flood test duck salad; type: in vivo, Heteranthera limosa
Summary of the method: as §2

bamyardgrass = assay: Test B flood test barnyardgrass; type: in vivo, Echinochloa crus-galli
Summary of the method: as §2

[1] = Postemergence, Rate 125 g/ha, scale of 0 to 10 where 0 is no effect and 10 is complete control
[2] = Preemergence, Rate 62 g/ha, scale of 0 to 10 where 0 is no effect and 10 is complete control
[3] = Preemergence, Rate 125 g/ha, 0 is no effect, 10 is complete control
[4] = Preemergence, Rate 250 g/ha, scale 0 to 10, 0 is no effect, 10 is complete control
[5] = Preemergence, Rate 500 g/ha, scale 0 to 10 (0 no effect, 10 complete control)
[6] = Rate 62 g/ha, Postemergence, scale of 0 to 10 where 0 is no effect and 10 is complete control
[7] = Rate 250 g/ha, Postemergence, scale 0 to 10, 0 is no effect, 10 is complete control
[8] = Rate 500 g/ha, Postemergence, scale 0 to 10
[9] = Postemergence (flood test species), Rate 125 g/ha, scale of 0 to 10 where 0 is no effect and 10 is complete control
[10] = Rate 62 g/ha, Postemergence section, flood test species, scale of 0 to 10 where 0 is no effect and 10 is complete control
[11] = Rate 250 g/ha, Postemergence (flood test), scale 0 to 10, 0 is no effect, 10 is complete control
[12] = Rate 500 g/ha, listed under Postemergence (flood test species), scale 0 to 10

**Q.** Which results are given for Cc1nsc(C)c1-n1c(=O)on(C(=O)N(c2ccc(Cl)cc2)C(C)C)c1=O [Compound 159]?
**A.** Bedstraw plant response rating (bedstraw; [1]): 0; Bedstraw plant response rating (bedstraw; [2]): 0; Bedstraw plant response rating (0 to 10 scale) (bedstraw; [3]): 0; Bedstraw plant response rating (bedstraw; [4]): 0; Bedstraw plant response rating (bedstraw; [5]): 0; Bedstraw plant response rating (bedstraw; [6]): 0; Plant response rating, Bedstraw (bedstraw; [7]): 0; Bedstraw plant response rating (bedstraw; [8]): 0; Blackgrass plant response rating (blackgrass; [1]): 0; Blackgrass plant response rating (blackgrass; [2]): 0; Blackgrass plant response rating (0 to 10 scale) (blackgrass; [3]): 0; Blackgrass plant response rating (blackgrass; [4]): 0; Blackgrass plant response rating (blackgrass; [5]): 0; Blackgrass plant response rating (blackgrass; [6]): 0; Plant response rating, Blackgrass (blackgrass; [7]): 0; Blackgrass plant response rating (blackgrass; [8]): 0; Giant foxtail plant response rating (giant foxtail; [1]): 0; Giant foxtail plant response rating (giant foxtail; [2]): 0; Giant foxtail plant response rating (0 to 10 scale) (giant foxtail; [3]): 0; Giant foxtail plant response rating (giant foxtail; [4]): 0; Giant foxtail plant response rating (giant foxtail; [5]): 0; Giant foxtail plant response rating (giant foxtail; [6]): 0; Plant response rating, Giant foxtail (giant foxtail; [7]): 0; Giant foxtail plant response rating (giant foxtail; [8]): 0; Morningglory plant response rating (morningglory; [1]): 2; Morningglory plant response rating (morningglory; [2]): 0; Morningglory plant response rating (0 to 10 scale) (morningglory; [3]): 0; Morningglory plant response rating (morningglory; [4]): 0; Morningglory plant response rating (morningglory; [5]): 0; Morningglory plant response rating (morningglory; [6]): 0; Plant response rating, Morningglory (morningglory; [7]): 3; Morningglory plant response rating (morningglory; [8]): 4; Redroot pigweed plant response rating (pigweed; [1]): 0; Redroot pigweed plant response rating (pigweed; [2]): 0; Redroot pigweed plant response rating (0 to 10 scale) (pigweed; [3]): 0; Redroot pigweed plant response rating (pigweed; [4]): 0; Redroot pigweed plant response rating (pigweed; [5]): 0; Redroot pigweed plant response rating (pigweed; [6]): 0; Plant response rating, Redroot pigweed (pigweed; [7]): 0; Redroot pigweed plant response rating (pigweed; [8]): 0; Rape plant response rating (rape; [1]): 0; Rape plant response rating (rape; [2]): 0; Rape plant response rating (0 to 10 scale) (rape; [3]): 0; Rape plant response rating (rape; [4]): 0; Rape plant response rating (rape; [5]): 0; Rape plant response rating (rape; [6]): 0; Plant response rating, Rape (rape; [7]): 0; Rape plant response rating (rape; [8]): 0; Soybean plant response rating (soybean; [1]): 3; Soybean plant response rating (soybean; [2]): 0; Soybean plant response rating (0 to 10 scale) (soybean; [3]): 0; Soybean plant response rating (soybean; [4]): 0; Soybean plant response rating (soybean; [5]): 0; Soybean plant response rating (soybean; [6]): 0; Plant response rating, Soybean (soybean; [7]): 3; Soybean plant response rating (soybean; [8]): 3; Sugarbeets plant response rating (sugar beet; [1]): 0; Sugarbeets plant response rating (sugar beet; [2]): 0; Sugarbeets plant response rating (0 to 10 scale) (sugar beet; [3]): 0; Sugarbeets plant response rating (sugar beet; [4]): 0; Sugarbeets plant response rating (sugar beet; [5]): 0; Sugarbeets plant response rating (sugar beet; [6]): 0; Plant response rating, Sugarbeets (sugar beet; [7]): 0; Sugarbeets plant response rating (sugar beet; [8]): 0; Velvetleaf plant response rating (velvetleaf; [2]): 0; Velvetleaf plant response rating (0 to 10 scale) (velvetleaf; [3]): 0; Velvetleaf plant response rating (velvetleaf; [4]): 0; Velvetleaf plant response rating (velvetleaf; [5]): 0; Plant response rating, Velvetleaf (velvetleaf; [7]): 0; Velvetleaf plant response rating (velvetleaf; [8]): 0; Wheat plant response rating (wheat; [2]): 0; Wheat plant response rating (0 to 10 scale) (wheat; [3]): 0; Wheat plant response rating (wheat; [4]): 0; Wheat plant response rating (wheat; [5]): 0; Plant response rating, Wheat (wheat; [7]): 0; Wheat plant response rating (wheat; [8]): 0; Wild oats plant response rating (wild oat; [2]): 0; Wild oats plant response rating (0 to 10 scale) (wild oat; [3]): 0; Wild oats plant response rating (wild oat; [4]): 0; Wild oats plant response rating (wild oat; [5]): 0; Plant response rating, Wild oats (wild oat; [7]): 0; Wild oats plant response rating (wild oat; [8]): 0; Nutsedge plant response rating (purple nutsedge; [1]): 0; Nutsedge plant response rating (purple nutsedge; [2]): 0; Nutsedge plant response rating (0 to 10 scale) (purple nutsedge; [3]): 0; Nutsedge plant response rating (purple nutsedge; [4]): 0; Nutsedge plant response rating (purple nutsedge; [5]): 0; Nutsedge plant response rating (purple nutsedge; [6]): 0; Plant response rating, Nutsedge (purple nutsedge; [7]): 0; Nutsedge plant response rating (purple nutsedge; [8]): 0; Rice plant response rating (rice; [9]): 0; Rice plant response rating (rice; [10]): 0; Plant response rating, Rice (rice; [11]): 0; Rice plant response rating (rice; [12]): 0; S. Flatsedge plant response rating (smallflower flatsedge; [9]): 0; S. Flatsedge plant response rating (smallflower flatsedge; [10]): 0; Plant response rating, S. Flatsedge (smallflower flatsedge; [11]): 0; S. Flatsedge plant response rating (smallflower flatsedge; [12]): 0; Ducksalad plant response rating (duck salad; [9]): 0; Ducksalad plant response rating (duck salad; [10]): 0; Plant response rating, Ducksalad (duck salad; [11]): 0; Ducksalad plant response rating (duck salad; [12]): 0; Barnyardgrass plant response rating (bamyardgrass; [9]): 0; Barnyardgrass plant response rating (bamyardgrass; [10]): 0; Plant response rating, Barnyardgrass (bamyardgrass; [11]): 0; Barnyardgrass plant response rating (bamyardgrass; [12]): 0
